In US10457682B2, “Small molecules that bind MR1” (OREGON HEALTH & SCIENCE UNIVERSITY, priority 2016, dated 2019):
Entries after “also recorded” stand apart in the source; their conditions may differ. Where two headings read alike, the source gives them in different places.

Key:
hpMR1 = hpMR1 (UniProt C1ITJ8+Q95460); details: tandem mass spectrometry; hpMR1-bac, +EC, +MS
Experimental: MR1 expressed in cells infected with two distinct microbes recognized by MR1Ts, E. coli and M. smegmatis, were analyzed by flow cytometry, ELISPOT assay, and mass spectrometry.
The presence and relative abundance of known MR1T ligands was assessed.
To further explore the MR1 ligandome, all ligands eluted from hpMR1-bac, +EC, and +MS were evaluated using LCMS. Fold increase was calculated for each ion/ligand in either hpMR1+MS or +EC compared to all other samples and plotted on volcano plots (FIG. 2A).
Global Natural Products Social Molecular Networking (GNPS) was used to assist in the identification of these novel ligands.

MR1T cell clone D426 G11 [1] = details: literature (Harriff 2016; Eckle 2014); cited from earlier work
MR1 = MR1 (Homo sapiens, UniProt Q95460); assay: Binding of small molecule ligands to MR1
Source text: 6,7-dimethyl-5-deazalumazine (DZ) is a synthetic compound designed based on the structure and activity of FO and other known mycobacterial ligands for MR1. […] Photolumazines I and III are small molecule secondary metabolites produced by bacteria.
Binding can be detected by any procedure known to one skilled in the art, such as by physical or functional properties including cellular properties. Binding can also be detected by visualization of a label (such as a fluorescent label) conjugated to one of the molecules.
Disclosed herein is work reflecting the diversity of ligands bound by MR1 in the context of infection with different microbes. MR1 ligand diversity is detected by MR1T cells, as MR1 tetramers loaded with multiple bacterial ligands were broadly recognized by MR1T clones with distinct TCR arrangements and by PBMC from a panel of donors. […] While previous work has only identified a few riboflavin metabolites as activating MR1Ts, our results establishes that MR1 samples the broader microbial metabolome similar to how conventional MHC molecules sample the microbial peptidome and CD1 molecules sample microbial lipids and glycolipids.

MR1T clones = assay: Ability of synthetic ligands to stimulate MR1T clones; assay type: cell-based, human
Experimental: (§1) To determine whether riboflavin, FO, PLI, and PLIII were antigens, they were tested for their ability to stimulate MR1T clones. […] (FIGS. 4A, 4B). […] To determine whether riboflavin or FO are also antagonistic, antigen presenting cells (APC) were pre-loaded with riboflavin or FO and then tested for their ability to present antigens from M. smegmatis supernatant (Msm-sup) to MR1Ts. […] PLI and PLIII were each tested for their ability to stimulate two MR1T clones with distinct TCRs.
(§2) FIGS. 4A, 4B, 4C, 4D: MR1T cell responses to synthetic ligands. A-B) MR1T cell clone D426 G11 responses to BEAS-2B cells incubated with FO (A, 10 μM, 30 μM, or 100 μM), or Riboflavin (B, 7.8 μM-500 μM) prior to addition of M. smegmatis supernatant (Msm-s) or PHA. C) MR1 cell clone D481 C7 responses to DC incubated with synthetic PLI, PLIII, RL-6,7,-diMe (DMRL), or RL-6-Me-7-OH (HMRL), at 1.56μM-200μM, or M. smegmatis (Msm), M. smegmatis supernatant (Msm-s), or PHA. D) Panel of MR1T cell clones or an HLA-B45-restricted T cell clone (D466 A10) incubated with 100 μM PLI, PLIII, DMRL, or HMRL.

MR1T cell clone D426 G11 [2] = assay: Blocking of MR1T clone response to M. smegmatis supernatant after pre-loading antigen presenting cells; assay type: cell-based, human; details: for blocking of MR1T clone response to Msm-sup (MAIT cell activation): APC (BEAS-2B) pre-loaded with FO 10-100 μM or riboflavin 7.8-500 μM, then M. smegmatis supernatant
Experimental: as §1, §2

MR1T clone D481_C7 = assay: MR1T cell clone D481 C7 responses to DC incubated with synthetic ligands; assay type: cell-based, human; details: for response of clone D481_C7: 100 μM ligand (FIG. 4D); for IFN-γ response of clone D481_C7: DC incubated with ligand at 1.56 μM-200 μM (FIG. 4C top)
Experimental: as §1
(§3) Given the striking differences in response between D481_C7 and D426_G11, we postulated that discrete TCR usage could be associated with ligand discrimination. To test this, an expanded panel of TCR diverse MR1T clones was tested for their ability to recognize each antigen. Every clone responded robustly to APC infected with M. smegmatis (FIG. 4D). […] In contrast, the D481_C7 responded to RL-6-Me-7-OH as well as RL-6,7-diMe, PLI, and PLIII. Because TRAV1-2 negative cells were stained with the hpMR1+EC tetramer, we also tested the ability of a recently described TRAV12-2 MR1T cell clone to respond to these ligands.
as §2

MR1T clone D426_G11 = assay: MR1T cell clone D426_G11 responses to synthetic ligands; assay type: cell-based, human; details: FIG. 4C bottom
Experimental: as §1, §2

[3] = system: D481_F12 and D481_A9 MR1T cell clones; assay: D481_F12 and D481_A9 MR1T cell clone responses to synthetic ligands; assay type: cell-based, human; details: 100 μM ligand (FIG. 4D)
Experimental: as §3, §2

[4] = system: D462_E4 TRAV12-2 MR1T cell clone; assay: TRAV12-2 MR1T cell clone D462_E4 responses to synthetic ligands; assay type: cell-based, human; details: 100 μM ligand (FIG. 4D)
Experimental: as §3, §2

Sequence of hpMR1 (Q95460 23-201 limits assumed): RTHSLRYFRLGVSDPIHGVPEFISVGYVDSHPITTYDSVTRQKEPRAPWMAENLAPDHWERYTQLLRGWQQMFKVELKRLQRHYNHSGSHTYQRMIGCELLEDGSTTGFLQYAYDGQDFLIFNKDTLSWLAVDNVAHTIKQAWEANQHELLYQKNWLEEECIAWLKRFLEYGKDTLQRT
Sequence of hpMR1 (C1ITJ8 198-289 limits assumed): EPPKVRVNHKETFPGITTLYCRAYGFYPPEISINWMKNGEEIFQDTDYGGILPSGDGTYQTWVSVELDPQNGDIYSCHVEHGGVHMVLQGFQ
Sequence of MR1 (Q95460 23-341): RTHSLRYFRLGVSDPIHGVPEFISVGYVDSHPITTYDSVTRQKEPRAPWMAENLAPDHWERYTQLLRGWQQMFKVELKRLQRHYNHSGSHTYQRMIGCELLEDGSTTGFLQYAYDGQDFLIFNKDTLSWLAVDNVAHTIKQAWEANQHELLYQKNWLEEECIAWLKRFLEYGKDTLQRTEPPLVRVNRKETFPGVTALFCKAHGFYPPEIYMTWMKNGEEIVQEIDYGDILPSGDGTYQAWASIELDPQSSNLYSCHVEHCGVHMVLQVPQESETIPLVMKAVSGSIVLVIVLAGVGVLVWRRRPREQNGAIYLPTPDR
Sequence of MR1 (P61769 21-119 partner): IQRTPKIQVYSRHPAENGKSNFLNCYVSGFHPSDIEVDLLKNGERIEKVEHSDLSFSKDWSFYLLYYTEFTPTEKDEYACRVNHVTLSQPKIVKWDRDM

| Compound | presence among ligands eluted from hpMR1 preparations (hpMR1) | binding to MR1 / MR1 ligand (MR1) | ability to stimulate MR1T clones (MR1T cell activation) (MR1T clones) | response of clone D481_C7 (MR1T clone D481_C7) | recognition by D481_F12 and D481_A9 MR1T cell clones [3] | response of D462_E4 TRAV12-2 MR1T cell clone [4] | further results |
| --- | --- | --- | --- | --- | --- | --- | --- |
| O=CC=Nc1c(NC[C@H](O)[C@H](O)[C@H](O)CO)[nH]c(=O)[nH]c1=O [5-OE-RU, 5-(2-oxoethylideneamino)-6-D-ribitylaminouracil] | not found in these hpMR1 preparations | – | – | – | – | – | – |
| Nc1nc2ncc(C=O)nc2c(=O)[nH]1 [6-FP] | – | – | – | – | – | – | antagonism of MR1T activation (MR1T cell clone D426 G11 [1]): antagonizes MR1T activation |
| Cc1cc2c(=O)[nH]c(=O)[nH]c2nc1C [DZ, 6,7-dimethyl-5-deazalumazine] | – | binds MR1 | activates MR1 restricted T cells | – | – | – | – |
| O=c1nc2n(C[C@H](O)[C@H](O)[C@H](O)CO)c3cc(O)ccc3cc-2c(=O)[nH]1 [FO] | – | binds MR1; also recorded: confirmed these molecules as novel MR1 ligands | Neither riboflavin nor FO was capable of MR1T cell activation | – | – | – | blocking of MR1T clone response to Msm-sup (MAIT cell activation) (MR1T cell clone D426 G11 [2]): blocks the activation of MAIT cells; also recorded: blocked the MR1T clone response to Msm-sup; antagonist potency relative to riboflavin (amount required to reach 50% inhibition) (MR1T cell clone D426 G11 [2]; pre-incubation of APC, response to Msm-sup): less FO was required to reach 50% inhibition |
| O=c1nc2n(C[C@H](O)[C@H](O)[C@H](O)CO)c(O)c(-c3c[nH]c4ccccc34)nc-2c(=O)[nH]1 [PLIII] | – | confirmed these molecules as novel MR1 ligands | antigenic | responded | modest or no recognition | comparable responses to RL-6-Me-7-OH and PLI that were greater than PLIII | binding to MR1 / MR1 ligand (MR1; listed as Photolumazine III): bind MR1; ability to stimulate MR1T clones (MR1T cell activation) (MR1T clones; listed as Photolumazine III): activated MR1 restricted T cells; IFN-γ response of clone D481_C7 (MR1T clone D481_C7): potent activating ligands similar to RL-6,7-diMe; IFN-γ response of clone D426_G11 (MR1T clone D426_G11): only modest responses |
| O=C(O)CCc1nc2c(=O)[nH]c(=O)nc-2n(C[C@H](O)[C@H](O)[C@H](O)CO)c1O [PLI] | unique to hpMR1+MS | confirmed these molecules as novel MR1 ligands | antigenic | responded | modest or no recognition | comparable responses to RL-6-Me-7-OH and PLI that were greater than PLIII | binding to MR1 / MR1 ligand (MR1; listed as Photolumazine I): bind MR1; ability to stimulate MR1T clones (MR1T cell activation) (MR1T clones; listed as Photolumazine I): activated MR1 restricted T cells; IFN-γ response of clone D481_C7 (MR1T clone D481_C7): potent activating ligands similar to RL-6,7-diMe; IFN-γ response of clone D426_G11 (MR1T clone D426_G11): only modest responses |
| Cc1nc2c(=O)[nH]c(=O)nc-2n(C[C@H](O)[C@H](O)[C@H](O)CO)c1C [RL-6,7-diMe, reference compound] | not found in these hpMR1 preparations | – | – | responded | responded | did not respond | – |
| Cc1nc2c(=O)[nH]c(=O)nc-2n(C[C@H](O)[C@H](O)[C@H](O)CO)c1O [RL-6-Me-7-OH, reference compound] | – | – | – | responded | modest or no recognition | comparable responses to RL-6-Me-7-OH and PLI that were greater than PLIII | – |
| Cc1cc2nc3c(=O)[nH]c(=O)nc-3n(C[C@H](O)[C@H](O)[C@H](O)CO)c2cc1C [riboflavin, reference compound] | – | confirmed these molecules as novel MR1 ligands | Neither riboflavin nor FO was capable of MR1T cell activation | – | – | – | blocking of MR1T clone response to Msm-sup (MAIT cell activation) (MR1T cell clone D426 G11 [2]): blocked the MR1T clone response to Msm-sup |
